Measured values from patent US8703961B2, “Thiazole derivatives for the treatment of diseases such as cancer” (Merck Patent GmbH, priority 2009, dated 2014).

How the values were obtained:
MAPK8 [1] = molecular target: T1, MAPK8 (Homo sapiens, UniProt P45983); assay: filter binding kinase assay; format: biochemical; parameters: purchased; conditions: derived from % inhibition at 1 μM; first MAPK8 line
Description: (§1) All kinase assays were carried out using the Multidrop 384 from Thermo-Fisher at room temperature in a total assay volume of 25.5 μl. 15 μl of an enzyme mix comprising enzyme and substrate in buffer are added to the test batch comprising either 0.5 μl of test substance, DMSO control or empty container. Test substances are pre-incubated in the presence of the enzyme and substrate for 5 minutes before the reaction is initiated by addition of 10 μl of ATP (concentration kinase-dependent of […]). The reaction is terminated by addition of 5 μl of orthophosphoric acid (50 mM). The test containers are then transferred onto P81 Unifilter plates by means of a “Packard Harvester” and dried in air. The dry Unifilter plates are sealed after the addition of MicroScint O, and the radioactivity is determined in a Packard Topcount NXT.
Target sequence in this assay (P45983 whole entry, species assumed): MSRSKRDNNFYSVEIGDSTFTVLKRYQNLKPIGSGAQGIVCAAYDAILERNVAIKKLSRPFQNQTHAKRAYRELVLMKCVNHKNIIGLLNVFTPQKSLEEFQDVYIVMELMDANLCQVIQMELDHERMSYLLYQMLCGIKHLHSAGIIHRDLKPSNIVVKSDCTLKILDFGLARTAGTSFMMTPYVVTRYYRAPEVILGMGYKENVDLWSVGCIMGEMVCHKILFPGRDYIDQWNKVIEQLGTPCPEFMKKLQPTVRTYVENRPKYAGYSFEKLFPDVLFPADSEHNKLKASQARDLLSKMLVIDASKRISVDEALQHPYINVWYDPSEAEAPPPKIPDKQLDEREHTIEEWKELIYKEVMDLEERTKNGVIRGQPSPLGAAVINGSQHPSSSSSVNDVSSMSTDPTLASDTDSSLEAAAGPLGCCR

ROCK2 (Rock II) = molecular target: T2, ROCK2 (Rock II) (Homo sapiens, UniProt O75116); assay: filter binding kinase assay; format: biochemical; conditions: for IC50: derived from % inhibition at 1 μM
T2 construct: purchased
Outline: (§2)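 Radioactivity retained on P81 phosphocellulose filters is the read-out. Before the reaction begins, test substance sits with kinase and substrate for 5 minutes at room temperature. The ATP solution added is 5, 20 or 50 […] according to the kinase, and acid quench ends the reaction.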

RPS6KB1 = molecular target: T3, RPS6KB1 (Homo sapiens, UniProt P23443); assay: filter binding kinase assay; format: biochemical; conditions: derived from % inhibition at 1 μM
T3 construct: purchased
Outline: as §2

HIPK2 = molecular target: T4, HIPK2 (Homo sapiens, UniProt Q9H2X6); assay: filter binding kinase assay; format: biochemical; conditions: for IC50: derived from % inhibition at 1 μM
T4 construct: purchased
Outline: as §2

PRKCA = molecular target: T5, PRKCA (Homo sapiens, UniProt P17252); assay: filter binding kinase assay; format: biochemical; conditions: derived from % inhibition at 1 μM
T5 construct: purchased
Outline: as §2

SRPK1 = molecular target: T6, SRPK1 (Homo sapiens, UniProt Q96SB4); assay: filter binding kinase assay; format: biochemical; conditions: derived from % inhibition at 1 μM
T6 construct: purchased
Outline: as §2

EPHA2 = molecular target: T7, EPHA2 (Homo sapiens, UniProt P29317); assay: filter binding kinase assay; format: biochemical; conditions: derived from % inhibition at 1 μM
T7 construct: purchased
Outline: as §2

PRKAA1 = molecular target: T8, PRKAA1 (Homo sapiens, UniProt Q13131); assay: filter binding kinase assay; format: biochemical; conditions: derived from % inhibition at 1 μM
T8 construct: purchased
Outline: as §2

RPS6KA5 = molecular target: T9, RPS6KA5 (Homo sapiens, UniProt O75582); assay: filter binding kinase assay; format: biochemical; conditions: derived from % inhibition at 1 μM
T9 construct: purchased
Outline: as §2

PDPK1 = molecular target: T10, PDPK1 (Homo sapiens, UniProt O15530); assay: filter binding kinase assay (second PDPK1 line); format: biochemical; conditions: derived from % inhibition at 1 μM
T10 construct: purchased
T10 sequence (O15530 1-556): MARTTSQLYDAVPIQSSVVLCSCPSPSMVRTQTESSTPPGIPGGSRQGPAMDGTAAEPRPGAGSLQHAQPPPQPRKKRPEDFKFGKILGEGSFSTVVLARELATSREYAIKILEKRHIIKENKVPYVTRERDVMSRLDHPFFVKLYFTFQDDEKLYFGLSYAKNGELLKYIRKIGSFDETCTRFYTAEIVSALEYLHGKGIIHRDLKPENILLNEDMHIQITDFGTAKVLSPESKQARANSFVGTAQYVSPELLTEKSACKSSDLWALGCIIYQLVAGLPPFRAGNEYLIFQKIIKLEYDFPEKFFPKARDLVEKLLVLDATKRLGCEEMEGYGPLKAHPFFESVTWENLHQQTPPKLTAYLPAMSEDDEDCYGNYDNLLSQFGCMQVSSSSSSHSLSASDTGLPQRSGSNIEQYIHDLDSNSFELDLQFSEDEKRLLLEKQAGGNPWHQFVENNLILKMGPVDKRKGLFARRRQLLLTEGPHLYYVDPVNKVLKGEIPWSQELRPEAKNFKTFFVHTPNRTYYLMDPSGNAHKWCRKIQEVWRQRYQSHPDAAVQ
Description: as §1

NUAK1 = molecular target: T11, NUAK1 (Homo sapiens, UniProt O60285); assay: filter binding assay of NUAK1 inhibition; format: biochemical; conditions: for IC50: derived from % inhibition at 1 μM; for remaining activity at 1 µM: read-out: residual kinase activity NUAK1
T11 construct: purchased
T11 sequence (O60285 1-661): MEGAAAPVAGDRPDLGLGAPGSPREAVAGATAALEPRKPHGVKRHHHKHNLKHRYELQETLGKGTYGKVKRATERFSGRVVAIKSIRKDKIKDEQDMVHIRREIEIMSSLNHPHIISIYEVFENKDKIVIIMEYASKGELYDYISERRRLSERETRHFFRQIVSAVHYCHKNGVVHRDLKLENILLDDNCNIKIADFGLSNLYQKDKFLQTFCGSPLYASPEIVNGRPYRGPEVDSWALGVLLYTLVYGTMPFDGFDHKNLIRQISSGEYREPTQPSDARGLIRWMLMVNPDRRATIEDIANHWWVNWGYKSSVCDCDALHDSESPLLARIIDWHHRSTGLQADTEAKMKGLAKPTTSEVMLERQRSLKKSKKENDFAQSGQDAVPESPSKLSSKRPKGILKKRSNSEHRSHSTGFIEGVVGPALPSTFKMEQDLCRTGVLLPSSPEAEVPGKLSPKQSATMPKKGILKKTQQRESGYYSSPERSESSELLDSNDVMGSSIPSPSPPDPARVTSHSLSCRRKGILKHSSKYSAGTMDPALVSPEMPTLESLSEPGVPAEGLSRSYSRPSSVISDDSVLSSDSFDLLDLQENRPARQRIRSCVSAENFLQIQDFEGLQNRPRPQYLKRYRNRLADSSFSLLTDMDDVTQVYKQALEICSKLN
Description: as §1
NUAK1 (5-20 mU diluted in 50 mM Tris pH 7.5, 0.1 mM EGTA, 0.1% β-mercaptoethanol, 1 mg/ml of BSA) is tested against ALNRTSSDSALHRRR as substrate. The final volume of 25.5 μl contains 50 mM Tris pH 7.5, 0.1 mM EGTA, 0.3 mM ALNRTSSDSALHRRR, 10 mM magnesium acetate and 0.02 mM [^33P-γ-ATP] (50-1000 cpm/pmole) and is incubated at room temperature for 30 min. Tests are terminated by the addition of 5 μl of a 0.5 M (3%) orthophosphoric acid soln. and then transferred onto P81 Unifilter plates and washed with 50 mM orthophosphoric acid buffer.

MAPK8 [2] = molecular target: T1, MAPK8; assay: filter binding kinase assay (second MAPK8 line); format: biochemical; conditions: read-out: residual kinase activity MAPK8
Description: as §1
Target sequence in this assay (P45983 whole entry): as the sequence (P45983 whole entry, species assumed) above

T9 sequence (O75582 whole entry, species assumed): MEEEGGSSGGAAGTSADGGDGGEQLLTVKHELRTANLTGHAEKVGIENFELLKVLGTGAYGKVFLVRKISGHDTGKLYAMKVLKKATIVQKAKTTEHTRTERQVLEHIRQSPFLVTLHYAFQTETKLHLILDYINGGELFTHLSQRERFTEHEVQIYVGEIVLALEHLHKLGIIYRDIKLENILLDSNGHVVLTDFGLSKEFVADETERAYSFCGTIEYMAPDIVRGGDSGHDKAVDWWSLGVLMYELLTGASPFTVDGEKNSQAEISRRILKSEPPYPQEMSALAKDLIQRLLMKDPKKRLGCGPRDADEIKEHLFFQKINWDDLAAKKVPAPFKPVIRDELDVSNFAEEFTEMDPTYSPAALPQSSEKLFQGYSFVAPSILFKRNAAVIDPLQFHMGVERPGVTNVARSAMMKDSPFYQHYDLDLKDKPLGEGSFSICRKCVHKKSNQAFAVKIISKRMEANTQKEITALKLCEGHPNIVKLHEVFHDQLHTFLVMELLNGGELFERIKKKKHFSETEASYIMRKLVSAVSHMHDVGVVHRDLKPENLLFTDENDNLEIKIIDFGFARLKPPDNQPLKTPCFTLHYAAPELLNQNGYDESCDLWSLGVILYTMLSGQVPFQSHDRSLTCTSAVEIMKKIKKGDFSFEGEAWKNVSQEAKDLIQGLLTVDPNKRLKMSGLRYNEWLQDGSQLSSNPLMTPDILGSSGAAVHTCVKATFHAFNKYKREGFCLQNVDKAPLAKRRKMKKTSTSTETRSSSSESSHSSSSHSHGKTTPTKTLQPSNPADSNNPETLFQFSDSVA
T7 sequence (P29317 24-976, species assumed): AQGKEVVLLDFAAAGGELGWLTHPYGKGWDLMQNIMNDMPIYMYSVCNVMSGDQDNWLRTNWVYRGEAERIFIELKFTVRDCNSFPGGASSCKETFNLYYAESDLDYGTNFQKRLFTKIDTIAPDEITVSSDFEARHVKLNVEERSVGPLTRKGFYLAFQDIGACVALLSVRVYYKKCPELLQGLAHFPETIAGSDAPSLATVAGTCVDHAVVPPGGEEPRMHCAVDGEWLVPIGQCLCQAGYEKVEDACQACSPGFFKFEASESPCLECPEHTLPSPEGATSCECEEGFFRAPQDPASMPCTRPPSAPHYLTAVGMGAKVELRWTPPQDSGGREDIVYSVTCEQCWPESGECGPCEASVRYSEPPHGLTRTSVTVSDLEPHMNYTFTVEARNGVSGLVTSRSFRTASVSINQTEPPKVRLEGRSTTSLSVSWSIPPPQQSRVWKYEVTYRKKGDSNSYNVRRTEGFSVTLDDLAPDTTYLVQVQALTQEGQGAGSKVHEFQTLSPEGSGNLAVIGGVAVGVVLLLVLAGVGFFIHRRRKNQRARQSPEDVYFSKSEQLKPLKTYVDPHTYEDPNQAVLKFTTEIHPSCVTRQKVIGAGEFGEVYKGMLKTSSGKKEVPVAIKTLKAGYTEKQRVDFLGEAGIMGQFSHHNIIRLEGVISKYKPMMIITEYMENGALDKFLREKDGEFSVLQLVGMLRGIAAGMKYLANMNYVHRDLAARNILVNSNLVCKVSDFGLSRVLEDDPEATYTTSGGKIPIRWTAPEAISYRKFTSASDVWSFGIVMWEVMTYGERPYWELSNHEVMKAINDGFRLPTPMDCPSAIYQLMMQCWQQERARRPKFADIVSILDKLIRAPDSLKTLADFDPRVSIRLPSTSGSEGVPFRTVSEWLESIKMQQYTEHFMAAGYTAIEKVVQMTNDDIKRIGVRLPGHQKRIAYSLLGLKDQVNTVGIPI
T6 sequence (Q96SB4 whole entry, species assumed): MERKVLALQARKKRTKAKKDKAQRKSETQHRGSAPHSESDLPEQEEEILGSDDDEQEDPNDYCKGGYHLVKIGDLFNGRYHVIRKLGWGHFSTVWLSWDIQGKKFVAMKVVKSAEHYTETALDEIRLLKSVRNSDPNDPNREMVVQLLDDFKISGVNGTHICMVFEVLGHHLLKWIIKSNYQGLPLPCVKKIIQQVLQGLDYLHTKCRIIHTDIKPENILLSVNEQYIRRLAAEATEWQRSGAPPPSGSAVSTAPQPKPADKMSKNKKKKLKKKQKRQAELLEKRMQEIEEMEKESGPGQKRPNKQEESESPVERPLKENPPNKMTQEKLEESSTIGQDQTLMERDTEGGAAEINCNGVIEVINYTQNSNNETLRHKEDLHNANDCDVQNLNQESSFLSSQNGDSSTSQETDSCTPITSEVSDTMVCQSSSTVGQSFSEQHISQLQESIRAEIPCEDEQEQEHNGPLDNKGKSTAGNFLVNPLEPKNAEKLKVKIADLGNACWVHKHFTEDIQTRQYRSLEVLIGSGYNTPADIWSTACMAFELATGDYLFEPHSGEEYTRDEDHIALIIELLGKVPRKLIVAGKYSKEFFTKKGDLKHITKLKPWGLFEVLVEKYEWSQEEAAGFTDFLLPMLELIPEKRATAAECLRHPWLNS
T8 sequence (Q13131 whole entry, species assumed): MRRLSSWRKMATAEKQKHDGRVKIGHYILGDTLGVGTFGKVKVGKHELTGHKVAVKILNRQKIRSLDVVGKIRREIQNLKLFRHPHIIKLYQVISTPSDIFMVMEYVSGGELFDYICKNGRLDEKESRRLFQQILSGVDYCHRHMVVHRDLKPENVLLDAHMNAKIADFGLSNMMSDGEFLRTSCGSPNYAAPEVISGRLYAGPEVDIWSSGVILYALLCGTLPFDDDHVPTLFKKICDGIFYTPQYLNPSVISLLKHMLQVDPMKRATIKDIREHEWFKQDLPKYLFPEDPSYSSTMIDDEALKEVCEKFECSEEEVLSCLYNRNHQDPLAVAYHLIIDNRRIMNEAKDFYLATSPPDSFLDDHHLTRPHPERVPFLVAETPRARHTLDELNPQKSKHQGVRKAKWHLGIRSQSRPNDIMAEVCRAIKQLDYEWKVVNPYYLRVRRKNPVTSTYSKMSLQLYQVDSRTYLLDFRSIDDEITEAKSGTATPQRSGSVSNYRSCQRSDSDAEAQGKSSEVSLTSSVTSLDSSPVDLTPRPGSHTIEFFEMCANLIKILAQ
T8 sequence (Q9Y478 whole entry partner, species assumed): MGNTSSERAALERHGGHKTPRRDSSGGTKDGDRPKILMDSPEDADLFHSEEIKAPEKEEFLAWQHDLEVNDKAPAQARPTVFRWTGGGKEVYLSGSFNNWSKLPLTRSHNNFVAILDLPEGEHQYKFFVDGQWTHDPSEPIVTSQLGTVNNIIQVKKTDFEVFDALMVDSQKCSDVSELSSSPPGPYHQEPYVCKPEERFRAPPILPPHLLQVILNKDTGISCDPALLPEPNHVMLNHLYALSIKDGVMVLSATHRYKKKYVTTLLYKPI
T8 sequence (P54619 whole entry partner, species assumed): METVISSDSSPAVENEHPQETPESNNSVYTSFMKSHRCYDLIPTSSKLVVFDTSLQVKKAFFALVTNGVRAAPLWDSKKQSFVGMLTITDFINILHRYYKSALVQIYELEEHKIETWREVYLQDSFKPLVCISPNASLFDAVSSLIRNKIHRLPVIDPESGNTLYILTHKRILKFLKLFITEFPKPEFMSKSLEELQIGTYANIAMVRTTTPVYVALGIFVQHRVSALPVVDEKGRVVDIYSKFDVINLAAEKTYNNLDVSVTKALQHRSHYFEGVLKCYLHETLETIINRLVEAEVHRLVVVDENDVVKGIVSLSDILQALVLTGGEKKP

Structure (SMILES) | IC50 (MAPK8 [1]) [µM] | IC50 (ROCK2 (Rock II)) [µM] | IC50 (RPS6KB1) [µM] | IC50 (HIPK2) [µM] | IC50 (PRKCA) [µM] | IC50 (SRPK1) [µM] | IC50 (EPHA2) [µM] | IC50 (PRKAA1) [µM] | IC50 (RPS6KA5) [µM] | IC50 (PDPK1) [µM] | IC50 (NUAK1) [µM] | remaining activity at 1 µM (ROCK2 (Rock II); read-out: residual kinase activity Rock II) [%] | melting point [°C] | remaining activity at 1 µM (NUAK1) [%] | remaining activity at 1 µM (MAPK8 [2]) [%] | remaining activity at 1 µM (HIPK2; read-out: residual kinase activity HIPK2) [%]
CC(C)(C)OC(=O)Nc1nc(-c2ccncc2)sc1C#CCN1CCOCC1 [Compound A25, tert-butyl[5-(3-morpholin-4-ylprop-1-ynyl)-2-pyridin-4-ylthiazol-4-yl]-carbamate] | > 1 | 10 to 100 | > 1 | > 1 | 10 to 100 | > 1 | > 1 | 10 to 100 | 10 to 100 | > 1 | 10 to 100 |  |  |  |  | 
c1ccc(Cc2c[nH]c3ncsc23)cc1 [Compound A7, 6-benzyl-4H-pyrrolo[2,3-d]thiazole] | 1 to 10 | 0.01 to 1 | 1 to 10 | > 1 | 10 to 100 | 10 to 100 | 10 to 100 | 10 to 100 | 1 to 10 | > 1 | 0.01 to 1 | 36 | 133 to 135 | 27 |  | 
Nc1ncsc1C#Cc1cnc2[nH]ccc2c1 [Compound A22, 5-(1H-pyrrolo[2,3-b]pyridin-5-ylethynyl)thiazol-4-ylamine] |  | > 1 | 1 to 10 | 0.01 to 1 | 1 to 10 | > 1 | > 1 | 10 to 100 | 10 to 100 | 1 to 10 | 0.01 to 1 |  |  | 16 | 34 | 44
Nc1ncsc1C#Cc1cccc(O)c1 [Compound A27, 3-(4-aminothiazol-5-ylethynyl)phenol] | 1 to 10 | 10 to 100 | 1 to 10 | > 1 | > 1 | 1 to 10 | > 1 | 1 to 10 | 10 to 100 | > 1 | 0.01 to 1 |  |  | 49 |  | 
CC(C)(C)OC(=O)Nc1ncsc1C#CCN1C(=O)c2ccccc2C1=O [Compound A26, tert-butyl{5-[3-(1,3-dioxo-1,3-dihydroisoindol-2-yl)prop-1-ynyl]-thiazol-4-yl}carbamate] | 10 to 100 | > 1 | > 1 | 1 to 10 | 1 to 10 | > 1 | > 1 | 10 to 100 | > 1 | 10 to 100 | 0.01 to 1 |  |  | 24 |  | 
